Our source for the TGI and GI50 values is PubChem BioAssay (NCI).

Values joined by “and” are separate entries in the source; they are usually repeats but may differ in a detail not shown here. Equal values may be shown once.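 Following 48 hours of exposure in 96-well plates, responses at five concentrations were used to interpolate endpoints linearly. GI50 is the concentration that inhibits growth by half. TGI denotes the concentration required for complete inhibition of growth.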 Bounds are passed on as bounds.

Test systems include DMS 273 small cell lung; DMS 114 small cell lung; XF 498 CNS; SNB-78 CNS; IGROV1 ovarian; EKVX NSCLC; LOX IMVI melanoma; M19-MEL melanoma; KM20L2 colon; HOP-18 NSCLC; LXFL 529 NSCLC.
Common to all, as to experiment: NCI anticancer screen, dose series, 48 h

In the case of `CCCOP(=S)(N1CC1)N1CC1`, the TGI with DMS 273 small cell lung, in the assay with DMS 114 small cell lung, with XF 498 CNS, in the assay on SNB-78 CNS, with IGROV1 ovarian and with EKVX NSCLC was greater than 100 µM throughout. Further, the TGI in the assay on LOX IMVI melanoma, in the assay on M19-MEL melanoma, in the assay on KM20L2 colon and with HOP-18 NSCLC was greater than 100 µM throughout.
In the case of `CCCc1cc(-c2ccc(-c3cc(CCC)c(C=O)[nH]3)s2)[nH]c1C=O`, the TGI is greater than 100 µM in the assay with DMS 273 small cell lung; 65 µM with DMS 114 small cell lung; greater than 100 µM in the assay on XF 498 CNS; greater than 100 µM with SNB-78 CNS; greater than 100 µM in the assay with IGROV1 ovarian; greater than 100 µM in the assay on LXFL 529 NSCLC. The TGI in the assay on EKVX NSCLC is greater than 100 µM; with LOX IMVI melanoma, 32.1 µM; in the assay on M19-MEL melanoma, greater than 100 µM; in the assay with HOP-18 NSCLC, greater than 100 µM.
For the molecule `CN(C)Cc1[nH]c2ccccc2c1C(=O)c1ccccc1`, the TGI with DMS 273 small cell lung, with XF 498 CNS, in the assay on IGROV1 ovarian, with LXFL 529 NSCLC and in the assay with KM20L2 colon was greater than 100 µM each time.
With `Cc1ccccc1NC(=O)CSc1nnc(Cc2ccccc2)o1`, the TGI with DMS 273 small cell lung, in the assay on DMS 114 small cell lung, with SNB-78 CNS, with IGROV1 ovarian, in the assay with LXFL 529 NSCLC and in the assay with LOX IMVI melanoma was greater than 100 µM in each case. Further, the TGI in the assay on M19-MEL melanoma, in the assay on KM20L2 colon and in the assay on HOP-18 NSCLC was greater than 100 µM in each case.
Consider `CC(=O)C1=NN(c2ccccc2)C2(S1)SC(c1ccccc1)(c1ccccc1)c1ccccc12` (configuration not stated), for which the TGI in the assay with DMS 273 small cell lung is 73.6 µM; in the assay with DMS 114 small cell lung it was greater than 100 µM; in the assay with SNB-78 CNS, greater than 100 µM; with IGROV1 ovarian, greater than 100 µM; with LXFL 529 NSCLC, greater than 100 µM; in the assay with EKVX NSCLC, greater than 100 µM. The TGI with LOX IMVI melanoma, in the assay with M19-MEL melanoma, in the assay with KM20L2 colon and in the assay on HOP-18 NSCLC was greater than 100 µM in each case.
Consider `COc1ccc(C2C(Cl)C(=O)N2NC(=O)c2ccccc2O)cc1OC` (configuration not stated), for which the TGI was greater than 100 µM in the assay on DMS 273 small cell lung; greater than 100 µM with DMS 114 small cell lung; 47.7 µM in the assay with XF 498 CNS; greater than 100 µM in the assay with SNB-78 CNS; greater than 100 µM in the assay on IGROV1 ovarian; greater than 100 µM with LOX IMVI melanoma. The molecule further yielded a TGI in the assay on M19-MEL melanoma greater than 100 µM.
As for `O=C1c2ccccc2C(=O)c2c(O)c(NCCNCCO)cc(O)c21`, the TGI was 12 µM in the assay on DMS 273 small cell lung; 16.1 µM with DMS 114 small cell lung; 19 µM with XF 498 CNS; 18.7 µM in the assay on SNB-78 CNS; 6.62 µM with IGROV1 ovarian; 18.1 µM in the assay with LXFL 529 NSCLC. Moreover, the TGI with EKVX NSCLC worked out at 14.4 µM; with LOX IMVI melanoma, 15.5 µM; in the assay on M19-MEL melanoma, 15.2 µM; with KM20L2 colon, 16.1 µM; in the assay on HOP-18 NSCLC, 18.8 µM.
As to `Cc1ccc(F)c2c(=O)cc(-c3ccccc3)[nH]c12`, the TGI in the assay on DMS 273 small cell lung, in the assay with DMS 114 small cell lung, in the assay on IGROV1 ovarian, in the assay on LXFL 529 NSCLC, in the assay with LOX IMVI melanoma and in the assay with M19-MEL melanoma was greater than 100 µM throughout. This molecule had a TGI with HOP-18 NSCLC greater than 100 µM.
For the molecule `Cc1nc2nn(C)cc2c(=O)n1/N=C/c1ccccc1`, the TGI in the assay with DMS 273 small cell lung, with DMS 114 small cell lung, in the assay on XF 498 CNS, with SNB-78 CNS, in the assay on IGROV1 ovarian and in the assay with EKVX NSCLC was greater than 100 µM in each case. Besides, the TGI in the assay on LOX IMVI melanoma, with M19-MEL melanoma, in the assay with KM20L2 colon and with HOP-18 NSCLC was greater than 100 µM each time.
For `COc1nc(OC)nc(Sc2ccc(Sc3ccc(Sc4nc(OC)nc(OC)n4)cc3)cc2)n1`, the TGI in the assay with DMS 273 small cell lung, with DMS 114 small cell lung, in the assay on XF 498 CNS, in the assay on SNB-78 CNS, in the assay with IGROV1 ovarian and with LXFL 529 NSCLC was greater than 100 µM each time. Besides, the TGI with EKVX NSCLC, in the assay with LOX IMVI melanoma, in the assay with M19-MEL melanoma, in the assay on KM20L2 colon and in the assay on HOP-18 NSCLC was greater than 100 µM throughout.
Regarding `C(=N/NC1=NCCN1)/c1c2ccccc2c(/C=N\NC2=NCCN2)c2ccccc12`, the GI50 in the assay on DMS 273 small cell lung is 0.0504 µM; with DMS 114 small cell lung, 0.0491 µM and 0.0606 µM; with XF 498 CNS, 0.0524 µM; with SNB-78 CNS, 0.368 µM; in the assay on M19-MEL melanoma, 0.0605 µM; in the assay with KM20L2 colon, 0.0553 µM. Further, in the assay on HOP-18 NSCLC, the GI50 is 0.282 µM. The TGI in the assay with DMS 114 small cell lung was 0.603 µM and 0.421 µM; in the assay on XF 498 CNS it was 0.372 µM and 0.298 µM; in the assay with SNB-78 CNS it was 3.83 µM and 9.8 µM; with IGROV1 ovarian, 0.661 µM and 3.09 µM and 4.75 µM; in the assay with EKVX NSCLC it was 2.32 µM and 2.94 µM and 1.57 µM; in the assay with LOX IMVI melanoma, 0.27 µM and 0.332 µM and 1.75 µM. The TGI in the assay with M19-MEL melanoma was 0.355 µM and 0.258 µM; with KM20L2 colon it was 2.16 µM and 1.22 µM; in the assay with HOP-18 NSCLC, 0.888 µM and 1.5 µM.
Consider `CN(C)C(=O)Oc1ccc(C(=S)Nc2ccccc2)cc1Br`, for which the TGI is 48.9 µM in the assay with IGROV1 ovarian, greater than 100 µM with EKVX NSCLC and 45.8 µM in the assay on LOX IMVI melanoma.
For the molecule `CCOP(=O)(OCC)C(=C1C=C(C(C)(C)C)C(=O)C(C(C)(C)C)=C1)P(=O)(OCC)OCC`, the TGI in the assay on IGROV1 ovarian, in the assay on EKVX NSCLC and in the assay on LOX IMVI melanoma was greater than 10 µM each time.
For `Nc1cc(N)c(N=Nc2cccc3c(S(=O)(=O)O)cccc23)cc1N=Nc1cc([N+](=O)[O-])ccc1O`, the TGI was greater than 100 µM in the assay on IGROV1 ovarian, greater than 100 µM in the assay on EKVX NSCLC and 37.1 µM in the assay with LOX IMVI melanoma.
As to `CC1=C(C(=O)NC(C)(C)C)CC(C(=O)NC(C)(C)C)C(C)N1` (configuration not stated), the TGI with IGROV1 ovarian, in the assay with EKVX NSCLC and with LOX IMVI melanoma was greater than 100 µM throughout.
For the molecule `C#CC(O)Cc1ccc(OC)c2occc12` (configuration not stated), the TGI with IGROV1 ovarian, in the assay on EKVX NSCLC and in the assay on LOX IMVI melanoma was greater than 100 µM throughout.
On to `Oc1ccccc1-n1nc2ccc3nonc3c2n1`, for which the TGI in the assay with IGROV1 ovarian, with EKVX NSCLC and with LOX IMVI melanoma was greater than 100 µM each time.
With `O=[N+]([O-])c1ccc2[nH]c(O)c(N=NC(=S)Nc3ccccc3)c2c1`, the TGI with IGROV1 ovarian turned out to be 19.6 µM; with EKVX NSCLC, 9.2 µM; with LOX IMVI melanoma it was 24.6 µM.
